# Reference: patent US20240269139A1, “COMPOUNDS FOR TARGETED PROTEIN DEGRADATION OF KINASES” (DANA-FARBER CANCER INSTITUTE, INC., priority 2020, published 2024)
# Like-named read-outs stand apart in the source and are kept apart here.
# How the values were obtained:
# Assay type in all cases: cell-based
# [1] = target: protein kinases (human kinome) (Homo sapiens, UniProt Q00537)
# From the text: (§1) Although development of targeted protein degraders requires a POI binder, among already-liganded proteins such as kinases, it was hypothesized that different targets would have a different propensity for current approaches to degrader-mediated destruction, which was termed ‘degradability’. […] It was rationalized that the probability of identifying the same kinase as a false positive in multiple treatments is low, therefore this analysis served to also assess the robustness of our data and subsequent interpretations. […] Overall, 62 protein kinases were degraded in more than 10 independent treatments, and remarkably, 9 of these (CDK4, AURKA, FER, WEE1, BLK. LIMK2, CDK6, GAK, LIMK1) were each degraded in at least 40 of the 154 independent treatments, emphasizing their predisposition to induced degradation (FIG. 1G; Appendix I).
# (§2) Next, the frequency of degradation assessment was corrected for over-representation of molecules in the full dataset by omitting replicate profiling of compounds under different experimental conditions, to remove any bias. […] Unsurprisingly, the top degradable kinases mirror those from the previous analysis (CDK4, AURKA, FER, WEE1, BLK), confirming that in sufficiently large datasets, even with over-representation of certain molecules, frequency of degradation is a good measure of general tractability.
# [2] = tested on: protein kinases (human kinome); details: for kinases the bifunctional compound degrades: as stated for the structure in the embodiments; for Kinase hits: kinases significantly downregulated vs DMSO (fold change cutoff −1.25, P-value<0.01), ≤8 h, 0.1-5 μM degrader, 7 cell lines; for Total no. kinase hits: number of degraded kinases per library compound
# From the text: as §1, §2
# [3] = target: protein kinases (human kinome) (Homo sapiens, UniProt P30291); details: for logFC of WEE1: WEE1 P30291-1
# From the text: as §1, §2
# [4] = target: protein kinases (human kinome) (Homo sapiens, UniProt P16591)
# From the text: as §1, §2
# [5] = target: protein kinases (human kinome) (Homo sapiens, UniProt P11802)
# From the text: as §1, §2
# [6] = target: protein kinases (human kinome) (Homo sapiens, UniProt P53667); details: LIMK1 (P53667-1), experiment wp056
# From the text: as §1, §2
# [7] = target: protein kinases (human kinome) (Homo sapiens, UniProt P53671); details: experiment wp056
# From the text: as §1, §2
# [8] = target: T1, protein kinases (human kinome) (Homo sapiens, UniProt O14976)
# T1 sequence (O14976 1-1311): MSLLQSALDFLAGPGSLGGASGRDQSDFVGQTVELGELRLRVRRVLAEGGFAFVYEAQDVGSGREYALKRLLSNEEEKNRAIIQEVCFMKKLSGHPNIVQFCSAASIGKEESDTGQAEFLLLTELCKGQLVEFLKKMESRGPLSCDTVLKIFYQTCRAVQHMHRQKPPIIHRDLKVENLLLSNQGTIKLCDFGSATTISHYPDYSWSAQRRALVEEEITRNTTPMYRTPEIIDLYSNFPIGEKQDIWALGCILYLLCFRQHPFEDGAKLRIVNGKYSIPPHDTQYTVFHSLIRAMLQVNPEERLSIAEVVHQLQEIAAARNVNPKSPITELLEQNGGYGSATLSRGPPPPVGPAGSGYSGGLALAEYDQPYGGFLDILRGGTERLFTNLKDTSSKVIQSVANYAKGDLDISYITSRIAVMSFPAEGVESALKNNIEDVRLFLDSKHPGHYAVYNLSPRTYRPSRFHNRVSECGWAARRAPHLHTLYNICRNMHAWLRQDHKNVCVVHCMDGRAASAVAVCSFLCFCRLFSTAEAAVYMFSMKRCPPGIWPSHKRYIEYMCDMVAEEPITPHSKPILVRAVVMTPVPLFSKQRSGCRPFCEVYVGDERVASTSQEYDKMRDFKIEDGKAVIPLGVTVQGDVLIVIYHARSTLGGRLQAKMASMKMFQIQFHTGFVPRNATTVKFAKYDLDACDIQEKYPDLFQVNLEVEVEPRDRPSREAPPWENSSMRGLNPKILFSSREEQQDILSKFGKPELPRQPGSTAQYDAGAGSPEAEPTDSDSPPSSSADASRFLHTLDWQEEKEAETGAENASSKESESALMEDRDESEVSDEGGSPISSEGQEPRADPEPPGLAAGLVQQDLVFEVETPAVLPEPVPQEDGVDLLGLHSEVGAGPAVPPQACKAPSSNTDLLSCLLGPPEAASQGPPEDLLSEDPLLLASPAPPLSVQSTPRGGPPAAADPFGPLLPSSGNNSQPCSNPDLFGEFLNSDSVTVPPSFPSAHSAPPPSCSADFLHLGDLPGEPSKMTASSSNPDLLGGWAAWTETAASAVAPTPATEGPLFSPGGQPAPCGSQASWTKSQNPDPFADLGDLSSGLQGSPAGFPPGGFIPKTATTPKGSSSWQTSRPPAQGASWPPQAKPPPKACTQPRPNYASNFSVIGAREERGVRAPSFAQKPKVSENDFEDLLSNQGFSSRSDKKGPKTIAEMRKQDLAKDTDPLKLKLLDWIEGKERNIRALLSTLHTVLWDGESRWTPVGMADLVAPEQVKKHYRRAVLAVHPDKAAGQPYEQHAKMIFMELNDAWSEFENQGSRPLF
# From the text: as §1, §2
# [9] = target: protein kinases (human kinome) (Homo sapiens, UniProt Q2M2I8); details: experiment wp088
# From the text: as §1, §2
# protein kinases (human kinome) (Homo sapiens, UniProt Q00537), sequence (Q00537 whole entry): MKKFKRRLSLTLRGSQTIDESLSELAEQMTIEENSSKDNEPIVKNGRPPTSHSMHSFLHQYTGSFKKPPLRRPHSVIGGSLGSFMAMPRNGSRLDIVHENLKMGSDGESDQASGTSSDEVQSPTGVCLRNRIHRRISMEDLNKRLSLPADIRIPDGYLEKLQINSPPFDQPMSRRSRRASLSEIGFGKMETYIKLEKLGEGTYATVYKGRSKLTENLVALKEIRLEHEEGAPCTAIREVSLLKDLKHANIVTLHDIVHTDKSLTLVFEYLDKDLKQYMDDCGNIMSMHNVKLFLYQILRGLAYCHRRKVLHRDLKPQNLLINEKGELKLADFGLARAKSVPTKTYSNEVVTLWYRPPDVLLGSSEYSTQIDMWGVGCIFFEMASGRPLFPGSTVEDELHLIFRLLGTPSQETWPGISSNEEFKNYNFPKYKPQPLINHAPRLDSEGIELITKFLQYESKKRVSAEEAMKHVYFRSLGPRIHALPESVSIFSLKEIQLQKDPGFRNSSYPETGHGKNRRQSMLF
# protein kinases (human kinome) (Homo sapiens, UniProt P11802), sequence (P11802 whole entry): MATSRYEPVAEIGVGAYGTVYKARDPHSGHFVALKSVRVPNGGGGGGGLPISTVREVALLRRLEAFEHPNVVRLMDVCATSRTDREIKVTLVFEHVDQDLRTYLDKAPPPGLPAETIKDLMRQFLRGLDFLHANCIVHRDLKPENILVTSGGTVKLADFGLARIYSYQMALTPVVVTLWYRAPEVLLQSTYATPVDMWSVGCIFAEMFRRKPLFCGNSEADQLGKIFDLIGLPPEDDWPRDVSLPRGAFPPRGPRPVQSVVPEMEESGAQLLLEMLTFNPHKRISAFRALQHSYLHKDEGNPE
# protein kinases (human kinome) (Homo sapiens, UniProt P30291), sequence (P30291 whole entry): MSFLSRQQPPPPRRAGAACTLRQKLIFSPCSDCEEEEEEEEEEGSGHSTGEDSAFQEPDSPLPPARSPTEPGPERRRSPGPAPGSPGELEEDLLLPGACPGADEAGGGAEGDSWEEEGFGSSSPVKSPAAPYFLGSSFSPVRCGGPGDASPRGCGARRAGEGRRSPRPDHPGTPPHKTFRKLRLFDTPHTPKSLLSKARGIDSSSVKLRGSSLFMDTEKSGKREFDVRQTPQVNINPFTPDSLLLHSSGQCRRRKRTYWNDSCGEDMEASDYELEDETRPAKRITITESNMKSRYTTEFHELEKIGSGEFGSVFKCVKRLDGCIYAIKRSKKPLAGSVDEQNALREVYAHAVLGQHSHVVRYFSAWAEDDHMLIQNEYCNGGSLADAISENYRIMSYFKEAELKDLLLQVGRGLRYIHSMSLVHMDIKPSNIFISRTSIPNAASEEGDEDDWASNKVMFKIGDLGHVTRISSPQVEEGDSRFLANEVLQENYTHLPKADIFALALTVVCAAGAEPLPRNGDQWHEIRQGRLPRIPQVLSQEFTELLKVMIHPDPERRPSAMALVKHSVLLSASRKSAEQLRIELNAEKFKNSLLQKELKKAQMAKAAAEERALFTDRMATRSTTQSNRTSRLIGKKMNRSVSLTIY
# protein kinases (human kinome) (Homo sapiens, UniProt P16591), sequence (P16591 whole entry): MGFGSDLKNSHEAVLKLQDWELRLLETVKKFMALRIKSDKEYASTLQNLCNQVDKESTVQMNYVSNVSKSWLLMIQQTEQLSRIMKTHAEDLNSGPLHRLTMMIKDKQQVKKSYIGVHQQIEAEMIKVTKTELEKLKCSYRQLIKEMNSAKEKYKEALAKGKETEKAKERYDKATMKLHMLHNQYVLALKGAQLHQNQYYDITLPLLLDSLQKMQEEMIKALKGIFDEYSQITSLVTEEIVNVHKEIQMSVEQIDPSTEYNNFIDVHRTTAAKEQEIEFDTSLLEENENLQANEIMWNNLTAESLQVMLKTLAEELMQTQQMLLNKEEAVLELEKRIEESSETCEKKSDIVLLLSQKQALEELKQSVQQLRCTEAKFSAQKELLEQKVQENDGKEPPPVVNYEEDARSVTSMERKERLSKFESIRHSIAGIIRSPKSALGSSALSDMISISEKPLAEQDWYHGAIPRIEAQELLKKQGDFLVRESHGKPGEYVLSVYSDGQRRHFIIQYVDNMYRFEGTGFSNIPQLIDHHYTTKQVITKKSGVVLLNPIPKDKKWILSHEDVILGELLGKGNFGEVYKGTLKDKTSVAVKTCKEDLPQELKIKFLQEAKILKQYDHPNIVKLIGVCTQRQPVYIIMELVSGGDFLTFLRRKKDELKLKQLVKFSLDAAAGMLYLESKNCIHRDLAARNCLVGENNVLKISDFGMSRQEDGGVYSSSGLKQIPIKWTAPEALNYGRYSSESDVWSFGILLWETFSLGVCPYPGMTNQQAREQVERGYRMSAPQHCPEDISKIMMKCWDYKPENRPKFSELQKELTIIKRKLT
# protein kinases (human kinome) (Homo sapiens, UniProt Q2M2I8), sequence (Q2M2I8 whole entry): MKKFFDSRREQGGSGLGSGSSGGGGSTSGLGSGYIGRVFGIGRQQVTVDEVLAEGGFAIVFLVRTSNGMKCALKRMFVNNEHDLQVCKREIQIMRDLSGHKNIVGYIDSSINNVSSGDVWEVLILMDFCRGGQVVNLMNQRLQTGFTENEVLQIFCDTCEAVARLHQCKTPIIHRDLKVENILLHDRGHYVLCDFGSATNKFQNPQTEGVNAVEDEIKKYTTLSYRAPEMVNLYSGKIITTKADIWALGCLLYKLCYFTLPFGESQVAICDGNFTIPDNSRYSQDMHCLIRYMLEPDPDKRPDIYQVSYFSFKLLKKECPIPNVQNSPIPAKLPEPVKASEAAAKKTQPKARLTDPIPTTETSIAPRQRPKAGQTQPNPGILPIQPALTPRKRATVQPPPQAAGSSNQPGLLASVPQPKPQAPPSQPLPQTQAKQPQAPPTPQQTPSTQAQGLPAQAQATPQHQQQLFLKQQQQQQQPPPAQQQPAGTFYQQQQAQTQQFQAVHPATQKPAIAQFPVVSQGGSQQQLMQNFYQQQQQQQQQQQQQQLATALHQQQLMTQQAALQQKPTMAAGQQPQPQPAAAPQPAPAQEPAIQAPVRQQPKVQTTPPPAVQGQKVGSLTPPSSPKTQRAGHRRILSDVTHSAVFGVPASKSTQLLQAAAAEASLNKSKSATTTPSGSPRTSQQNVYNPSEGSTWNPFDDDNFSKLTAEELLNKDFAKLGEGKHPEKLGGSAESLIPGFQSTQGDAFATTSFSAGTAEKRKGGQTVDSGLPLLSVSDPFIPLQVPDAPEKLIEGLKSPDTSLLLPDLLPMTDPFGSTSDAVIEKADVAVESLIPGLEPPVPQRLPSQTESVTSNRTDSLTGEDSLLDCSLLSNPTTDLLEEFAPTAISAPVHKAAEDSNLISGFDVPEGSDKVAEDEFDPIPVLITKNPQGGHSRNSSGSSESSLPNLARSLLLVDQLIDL
# protein kinases (human kinome) (Homo sapiens, UniProt P53667), sequence (P53667 whole entry): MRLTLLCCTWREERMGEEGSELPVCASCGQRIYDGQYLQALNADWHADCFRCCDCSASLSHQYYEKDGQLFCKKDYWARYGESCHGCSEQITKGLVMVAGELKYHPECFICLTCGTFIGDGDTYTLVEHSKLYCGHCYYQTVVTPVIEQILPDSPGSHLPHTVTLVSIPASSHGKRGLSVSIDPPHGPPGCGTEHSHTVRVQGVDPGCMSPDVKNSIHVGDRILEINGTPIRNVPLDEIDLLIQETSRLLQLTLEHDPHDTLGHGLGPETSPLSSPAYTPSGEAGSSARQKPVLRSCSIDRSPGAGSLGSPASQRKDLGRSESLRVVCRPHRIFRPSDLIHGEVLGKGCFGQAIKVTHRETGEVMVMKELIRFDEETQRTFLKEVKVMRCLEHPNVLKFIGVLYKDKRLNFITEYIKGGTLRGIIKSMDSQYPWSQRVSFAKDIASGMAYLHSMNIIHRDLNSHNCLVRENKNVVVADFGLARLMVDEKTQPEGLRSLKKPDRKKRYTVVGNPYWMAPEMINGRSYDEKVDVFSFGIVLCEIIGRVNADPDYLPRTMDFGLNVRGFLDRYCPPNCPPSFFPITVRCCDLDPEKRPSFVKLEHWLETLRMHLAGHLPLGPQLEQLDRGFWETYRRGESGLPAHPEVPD
# protein kinases (human kinome) (Homo sapiens, UniProt P53671), sequence (P53671 whole entry): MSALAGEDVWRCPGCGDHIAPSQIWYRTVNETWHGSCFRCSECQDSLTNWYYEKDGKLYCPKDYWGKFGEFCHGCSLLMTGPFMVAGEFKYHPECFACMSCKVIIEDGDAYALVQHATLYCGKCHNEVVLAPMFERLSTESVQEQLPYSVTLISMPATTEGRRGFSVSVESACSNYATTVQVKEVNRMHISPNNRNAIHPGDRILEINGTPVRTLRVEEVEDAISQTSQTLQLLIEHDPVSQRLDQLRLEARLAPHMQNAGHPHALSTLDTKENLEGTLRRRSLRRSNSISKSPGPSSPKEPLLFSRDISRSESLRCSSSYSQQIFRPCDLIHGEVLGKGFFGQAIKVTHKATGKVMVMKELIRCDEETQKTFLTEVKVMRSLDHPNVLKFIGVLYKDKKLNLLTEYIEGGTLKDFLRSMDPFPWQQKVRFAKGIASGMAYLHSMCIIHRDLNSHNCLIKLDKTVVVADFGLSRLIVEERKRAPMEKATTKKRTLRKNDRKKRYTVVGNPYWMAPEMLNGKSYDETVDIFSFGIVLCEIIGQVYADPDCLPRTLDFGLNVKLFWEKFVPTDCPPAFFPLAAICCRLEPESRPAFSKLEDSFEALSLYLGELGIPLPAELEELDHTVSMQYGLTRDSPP
structure (smiles),measurement,setting,value
"CC(C)(C)c1nc(-c2cccc(NS(=O)(=O)c3c(F)cccc3F)c2F)c(-c2ccnc(NCCOCCNC(=O)CCOCCOCCNc3cccc4c3C(=O)N(C3CCC(=O)NC3=O)C4=O)n2)s1 (stereo not shown) [DD-03-106, N-(2-(2-((4-(2-(tert-butyl)-4-(3-((2,6-difluorophenyl)sulfonamido)-2-fluorophenyl)thiazol-5-yl)pyrimidin-2-yl)amino)ethoxy)ethyl)-3-(2-(2-((2-(2,6-dioxopiperidin-3-yl)-1,3-dioxoisoindolin-4-yl)amino)ethoxy)ethoxy)propenamide]",preference for degrading CDK17,[1],strong preference for degrading CDK17
same,kinases the bifunctional compound degrades,[2],"AURKA, BCKDK, CDK1, CDK16, CDK17, CDK2, CDK3, CDK4, CDK6, COQ8A, COQ8B, CSK, EIF2AK2, LIMK1, LIMK2, MAP3K20, NLK, PLK1, PDK1, PDK2, and TESK2"
same,Kinase hits,[2],"AURKA, BCKDK, CDK1, CDK16, CDK17, CDK2, CDK3, CDK4, CDK6, COQ8A, COQ8B, CSK, EIF2AK2, LIMK1, LIMK2, MAP3K20, NLK, PLK1, PDK1, PDK2, TESK2"
same,Total no. kinase hits,[2],21
CNC(=O)c1ccccc1Nc1cc(Nc2ccc(N3CCN(CCOCCOCCNC(=O)CNc4cccc5c4C(=O)N(C4CCC(=O)NC4=O)C5=O)CC3)cc2OC)ncc1C(F)(F)F (stereo not shown) [MFH.S.103.1],logFC of WEE1,"[3]; experiment wp076, degrader vs DMSO",−0.9694
Cc1cc(Nc2ncc(Cl)c(Nc3ccccc3S(=O)(=O)C(C)C)n2)c(OC(C)C)cc1C1CCN(CCOCCOCCNC(=O)CNc2cccc3c2C(=O)N(C2CCC(=O)NC2=O)C3=O)CC1 (stereo not shown) [TL13.112],logFC of FER (P16591-1),"[4]; Experiment wp012, down",−0.5247
same,logFC PTK2 (Q05397-5),"[2]; Experiment wp012, direction of change down",−0.6217
same,logFC RPS6KA1,"[2]; RPS6KA1 (Q15418-2), experiment wp012",−0.7875
CC(=O)c1c(C)c2cnc(Nc3ccc(N4CCN(CCCCNC(=O)CNc5cccc6c5C(=O)N(C5CCC(=O)NC5=O)C6=O)CC4)cn3)nc2n(C2CCCC2)c1=O (stereo not shown) [BSJ.01.147],logFC CDK4 (P11802),[5]; experiment wp005,−1.415
same,logFC CDK4 (P11802),[5]; experiment wp084,−1.8
same,logFC of WEE1,[3]; experiment wp084,−0.5617
same,logFC WEE1 (P30291-1),[3]; experiment wp005,−0.447
same,logFC WEE1 (P30291-1),[3]; experiment wp084,−0.5617
Cc1ncsc1-c1ccc([C@H](C)NC(=O)[C@@H]2C[C@@H](O)CN2C(=O)[C@@H](NC(=O)CCOCCOCCNc2nccc(-c3sc(C(C)(C)C)nc3-c3cccc(NS(=O)(=O)c4c(F)cccc4F)c3F)n2)C(C)(C)C)cc1 [DD.03.156],logFC LIMK1,[6]; direction down,−1.037
same,logFC LIMK1,[6]; down,−1.037
same,logFC LIMK2,"[7]; LIMK2 (P53671), down",−1.703
same,logFC of LIMK2,[7]; LIMK2 P53671,−1.703
same,logFC of CDK17,"[1]; Accession Q00537, experiment wp056",−1.825
same,logFC CDK17 (Q00537),"[1]; experiment wp056, direction of change down",−1.825
CC(=O)c1c(C)c2cnc(Nc3ccc(N4CCN(CC(=O)NCCOCCOCCOCCNc5cccc6c5C(=O)N(C5CCC(=O)NC5=O)C6=O)CC4)cn3)nc2n(C2CCCC2)c1=O (stereo not shown) [YKL.6.102],logFC CDK4 (P11802),[5]; experiment wp005,−0.642
same,logFC WEE1 (P30291-1),[3]; experiment wp005,−0.3649
Cc1cc(Nc2ncc(Cl)c(Nc3ccccc3S(=O)(=O)C(C)C)n2)c(OC(C)C)cc1C1CCN(CCOCCOCCNC(=O)CNc2cccc3c2C(=O)N(C2CCC(=O)NC2=O)C3=O)CC1 (stereo not shown) [TI13.112],logFC of FER,"[4]; FER P16591-1, experiment wp012",−0.5247
same,logFC PTK2,"[2]; Accession Q05397-5, experiment wp012, direction down",−0.6217
same,logFC RPS6KA1 (Q15418-2),"[2]; RPS6KA1 protein abundance, degrader vs DMSO, experiment wp012",−0.7875
"Cc1ccc(NC(=O)c2cccc(C(F)(F)F)c2)cc1N1Cc2cnc(Nc3ccc(N4CCN(CCCCCC(=O)N[C@H](C(=O)N5C[C@H](O)C[C@H]5C(=O)N[C@@H](C)c5ccc(-c6scnc6C)cc5)C(C)(C)C)CC4)nc3)nc2N(C)C1=O [DB1114, (2S,4R)-1-((S)-3,3-dimethyl-2-(6-(4-(5-((8-methyl-6-(2-methyl-5-(3-(trifluoromethyl)benzamido)phenyl)-7-oxo-5,6,7,8-tetrahydropyrimido[4,5-d]pyrimidin-2-yl)amino)pyridin-2-yl)piperazin-1-yl)hexanamido)butanoyl)-4-hydroxy-N—((S)-1-(4-(4-methylthiazol-5-yl)phenyl)ethyl)pyrrolidine-2-carboxamide]",Total no. kinase hits,[2],31
CC(C)(C)c1cc(NC(=O)Nc2ccc(Oc3ccnc(C(=O)NCCOCCOCCNC(=O)CNc4cccc5c4C(=O)N(C4CCC(=O)NC4=O)C5=O)c3)cc2F)n(-c2ccc3ncccc3c2)n1 (stereo not shown) [TL13-178],kinases the bifunctional compound degrades,[2],"CDK4, LIMK1, MAP3K20, MAPK14, and MAST3"
Cc1c(NC(=O)c2ccc(C(C)(C)C)cc2)cccc1-c1cn(C)c(=O)c(Nc2ccc(C(=O)N3CCN(CCCCCCNC(=O)COc4cccc5c4C(=O)N(C4CCC(=O)NC4=O)C5=O)CC3)cc2)n1 (stereo not shown) [DD-04-118],Kinase hits,[2],BTK
same,Total no. kinase hits,[2],1
Cc1ccc(NC(=O)c2cccc(C(C)(C)C#N)c2)cc1Nc1ccc2ncn(CCOCCOCCC(=O)N[C@H](C(=O)N3C[C@H](O)C[C@H]3C(=O)NCc3ccc(-c4scnc4C)cc3)C(C)(C)C)c(=O)c2c1 [DD-02-198],kinases the bifunctional compound degrades,[2],MAPK14
same,Kinase hits,[2],MAPK14
same,Total no. kinase hits,[2],1
Cc1cnc(Nc2ccc(N3CCN(CCOCCOCCC(=O)N[C@H](C(=O)N4C[C@H](O)C[C@H]4C(=O)N[C@@H](C)c4ccc(-c5scnc5C)cc4)C(C)(C)C)CC3)cc2)nc1Nc1cccc(S(=O)(=O)NC(C)(C)C)c1 [JWG.122],logFC of GAK (O14976),"[8]; Experiment wp088, down",−0.3586
same,logFC GAK,"[8]; GAK (O14976), direction down, experiment wp088",−0.3586
same,logFC AAK1,"[9]; AAK1 (Q2M218-1), down",−0.6335
same,logFC AAK1,"[9]; AAK1, accession Q2M218-1, direction of change down",−0.6335
CC(=O)c1c(C)c2cnc(Nc3ccc(N4CCN(CCCCNC(=O)COc5cccc6c5C(=O)N(C5CCC(=O)NC5=O)C6=O)CC4)cn3)nc2n(C2CCCC2)c1=O (stereo not shown) [BSJ-03-204],Kinase hits,[2],"CDK4, CDK6, PDK1, WEE1"
same,Total no. kinase hits,[2],4
